Converted amounts (≈) assume the structure as drawn. Like-named read-outs stand apart in the source and are kept apart here.
Assays:
E. coli (ATCC 8739) = test: MIC, broth microdilution; format: cell-based; settings: Escherichia coli, ATCC8739; broth microdilution, 18 h, 37 °C; read-out: MIC E. coli (ATCC 8739)
P. aeruginosa (DSM 939) = test: MIC, broth microdilution; format: cell-based; settings: Pseudomonas aeruginosa, DSM939; broth microdilution, 18 h, 37 °C; read-out: MIC P. aeruginosa (DSM 939)
S. aureus FtsZ = target: T1, S. aureus FtsZ (Staphylococcus aureus, UniProt P0A031); test: FtsZ polymerization assay (A340); format: biochemical
T1 construct: His tag; made in house; host or cells: E. coli BL21(DE3)
T1 sequence (P0A031 1-390): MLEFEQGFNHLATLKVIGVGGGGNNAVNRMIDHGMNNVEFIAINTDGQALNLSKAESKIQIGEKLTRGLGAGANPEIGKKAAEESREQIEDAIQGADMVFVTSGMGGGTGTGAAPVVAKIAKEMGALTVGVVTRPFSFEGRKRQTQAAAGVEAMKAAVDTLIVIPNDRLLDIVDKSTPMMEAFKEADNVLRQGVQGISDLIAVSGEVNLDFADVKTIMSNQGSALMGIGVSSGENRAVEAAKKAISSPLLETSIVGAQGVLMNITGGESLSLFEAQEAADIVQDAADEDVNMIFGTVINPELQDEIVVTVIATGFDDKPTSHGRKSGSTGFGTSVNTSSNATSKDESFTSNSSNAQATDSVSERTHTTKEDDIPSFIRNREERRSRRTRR
Method: The effect of compounds on S. aureus FtsZ polymerization was monitored by employing a microtiter plate-based spectrophotometric assay method, and the reactions were conducted in flat-bottomed 96-well microtiter plates. The degree of FtsZ polymerization was reflected by the corresponding changes in absorbance at 340 nm (A340). […] The polymerization reaction began immediately once 4 mM GTP was added, and then the polymerization was continuously monitored at 25 °C for 60 min by measuring A340 in BioTek-Synergy4 multifunctional enzyme-linked immunosorbent assay (ELISA) reader.

FtsZ = target: T2, FtsZ (Staphylococcus aureus, UniProt P0A031); test: Sedimentation assay of FtsZ polymerization; format: biochemical; settings: 50 μM compound, 5 μM FtsZ, 37 °C 30 min
T2 construct: His tag; made in house; host or cells: E. coli BL21(DE3)
T2 sequence (P0A031 1-390): T1 sequence (P0A031 1-390)
Method: Sedimentation assay was also conducted for the influence of compounds on FtsZ polymerization. FtsZ (5 μM) was polymerized in a buffer containing 25 mM Pipes buffer (pH 6.8) and 3 mM MgSO4 in the […] of DMSO or compounds (50 μM). After the addition of 4 mM GTP, the sample was instantly placed at 37 °C for 30 min. Then, the polymers were collected by centrifuging for 30 min at 25 °C. The protein concentration in the supernatant was determined using the Bradford quantification method, with bovine serum albumin (BSA) as the standard. The experiment was performed in triplicate, and the average absorbance is shown.

B. subtilis = test: Phase-contrast microscopy, cell division inhibition; format: cell-based; settings: 64 μM, 4 h
Method: Cell Division Inhibitory Screening Assay Cell division inhibitory activity of compounds was conducted as below. […] Afterwards, 1 mL of the sample was centrifuged at 15,000× g for 3 min at room temperature, and the bacterial pellets were washed with 1 mL of PBS before re-centrifugation. The final bacterial pellets obtained were resuspended in 5 mL PBS. 20 μL of bacterial suspension was transferred to slides for microscopy. Cell morphology was estimated by using the phase-contrast method of Olympus IX71 microscopy (Olympus Corporation, Tokyo, Japan) with 400× magnification.

Hela = test: Antiproliferative activity, CCK8; format: cell-based; settings: Homo sapiens
Method: (§1) Antiproliferative activities of compounds were detected by employing the CCK8 method. HepG2, MCF-7, and Hela cells were cultured to log phase in DMEM medium supplemented with 10% fetal bovine serum. Cells were diluted to 2 × 10^4 cells/mL, and 100 µL of the obtained suspension was seeded in each well of the 96-well microplates, which were then cultured at 37 °C overnight. Subsequently, cells were treated with compounds at different concentrations. After co-culturing for 48 h, wells were washed with PBS three times and filled with 100 μL DMEM complete medium, which contained CCK8. After culturing for 2 h at 37 °C, the absorbance of measured and recorded on an ELISA reader (BioTek-Synergy 4, Winooski, VT, USA) at a test wavelength of 450 nm. Three replicate wells were employed for each drug concentration, and each assay was conducted at least three times.

HepG2 = test: Antiproliferative activity, CCK8; format: cell-based; settings: Homo sapiens, HepG2, 48 h, read-out: cell viability HepG2
Method: as §1

MCF-7 = test: Antiproliferative activity, CCK8; format: cell-based; settings: Homo sapiens
Method: as §1

Cytotoxicity, CCK8 = format: cell-based; settings: human, 12 h
Method: The absorbance of 450 nm was measured in an ELISA reader (BioTek-Synergy 4, USA). Then, cell viability was calculated, and the corresponding images were drawn with GraphPad Prism 9.

[1] = 48 h, read-out: cell viability Hela
[2] = MCF7, 48 h, read-out: cell viability MCF-7

**Q.** For CC(C)(C)c1[nH]cnc1/C=c1\[nH]c(=O)/c(=C/c2ccccc2)[nH]c1=O [Compound 23, Plinabulin], which MIC (E. coli (ATCC 8739)) is on record?
**A.** 64 µM (≈ 21.5 µg/mL)

**Q.** And the MIC (P. aeruginosa (DSM 939))?
**A.** 32 µM (≈ 10.8 µg/mL)

**Q.** What about the “effect on FtsZ polymerization (A340)” value (S. aureus FtsZ; 50 μM compound, 5 µM FtsZ, 4 mM GTP, vs DMSO) of the same compound?
**A.** remarkable promoting effect on FtsZ polymerization

**Q.** What about the “effect on FtsZ polymerization at different concentrations” value (S. aureus FtsZ; 5, 10, 20 and 50 μM, initial 10 min) of the same compound?
**A.** markedly accelerated FtsZ polymerization

**Q.** And the “effect on FtsZ sedimentation (polymerization amount)” value (FtsZ)?
**A.** markedly enhanced protein sedimentation

**Q.** What about the “cell morphology of B. subtilis (elongation)” value (B. subtilis) of the same compound?
**A.** the most pronounced effect

**Q.** And the viability at 0.1 µM (Hela; [1])?
**A.** 26%

**Q.** What about the viability at 1 µM (Hela; [1]) of the same compound?
**A.** 19%

**Q.** And the IC50 (Hela; abstract only)?
**A.** 10 nM

**Q.** What about the viability at 0.1 µM (HepG2) of the same compound?
**A.** 30.5%

**Q.** And the viability at 1 µM (HepG2)?
**A.** 11.5%

**Q.** What about the viability at 0.1 µM (MCF-7; [2]) of the same compound?
**A.** 27.5%

**Q.** And the viability at 1 µM (MCF-7; [2])?
**A.** 10%

**Q.** What about the IC50 (MCF-7; MCF7, abstract only) of the same compound?
**A.** 20 nM

**Q.** What about the viability at 100 µM (Cytotoxicity, CCK8; read-out: cell viability HT293 (293T)) of the same compound?
**A.** 79%

**Q.** And the viability at 100 µM (Cytotoxicity, CCK8; read-out: cell viability LO2)?
**A.** 81%
